Test results from PubChem BioAssay AID1963424 (Molecular Pharmacology Branch, DTP, NCI, 2024).

Test system: 327498-153-R-J2-PDC complex spheroid growth, % test/control
Assay: Anticancer human tumor 327498-153-R-J2-PDC patient-derived uterine carcinosarcoma cell line growth inhibition [Asc]
Conditions: for IC50: curve of first compound; for viability, T/C: stronger effect = lower value
Procedure, shortened: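 Complex spheroids combining tumor cells with HUVEC endothelial cells and human MSCs, at 37 degrees C, 5% CO2; agents tested alone or combined, half-log dilutions from at or near clinical Cmax, or 10 microM if Cmax unknown.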

[1] = second compound 0.03 µM, first compound 0.00316 µM
[2] = second compound 0.03 µM, first compound 0.01 µM
[3] = second compound 0.03 µM, first compound 0.0316 µM
[4] = second compound 0.03 µM, first compound 0.1 µM
[5] = second compound 0.0949 µM, first compound 0.00316 µM
[6] = second compound 0.0949 µM, first compound 0.01 µM
[7] = second compound 0.0949 µM, first compound 0.0316 µM
[8] = second compound 0.0949 µM, first compound 0.1 µM
[9] = second compound 0.3 µM, first compound 0.00316 µM
[10] = second compound 0.3 µM, first compound 0.01 µM
[11] = second compound 0.3 µM, first compound 0.0316 µM
[12] = second compound 0.3 µM, first compound 0.1 µM
[13] = second compound 0.949 µM, first compound 0.00316 µM
[14] = second compound 0.949 µM, first compound 0.01 µM
[15] = second compound 0.949 µM, first compound 0.0316 µM
[16] = second compound 0.949 µM, first compound 0.1 µM
[17] = second compound 3 µM, first compound 0.00316 µM
[18] = second compound 3 µM, first compound 0.01 µM
[19] = second compound 3 µM, first compound 0.0316 µM
[20] = second compound 3 µM, first compound 0.1 µM
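Further: spheroids exposed to compound for 7 days after 3 days of growth.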
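Wherever viability, T/C is given: 100% = DMSO vehicle control wells.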

With `COc1c(OCCCN2CCOCC2)ccc2c3n(c(=NC(=O)c4cnc(N)nc4)nc12)CCN3` + CCN1C(C(=O)NC23CCC(C(=O)O)(CC2)CC3)C(c2cccc(Cl)c2F)C2(C(=O)Nc3cc(Cl)ccc32)C12CCCCC2 the IC50 (second compound 0.03 µM) was 81.8 nM, the IC50 (second compound 0.0949 µM) was 33.5 nM and the IC50 (second compound 0.3 µM) was under 3.16 nM. The IC50 (second compound 0.949 µM) was under 3.16 nM, the IC50 (second compound 3 µM) was under 3.16 nM and the viability, T/C [1] was 84.5%. For the same compound, the viability, T/C [2] was 90.5%, the viability, T/C [3] was 76.5% and the viability, T/C [4] was 41.8%. It also gave a viability, T/C (second compound 0.03 µM, first compound 0.316 µM) of 21.1%, a viability, T/C (second compound 0.03 µM, first compound 1 µM) of 5.21% and a viability, T/C [5] of 80.3%. The viability, T/C [6] was 73.3%, the viability, T/C [7] was 50.4% and the viability, T/C [8] was 25.6%. It also gave a viability, T/C (second compound 0.0949 µM, first compound 0.316 µM) of 12.3%, a viability, T/C (second compound 0.0949 µM, first compound 1 µM) of 2.62% and a viability, T/C [9] of 40.1%. The viability, T/C [10] was 33.8%, the viability, T/C [11] was 24.4% and the viability, T/C [12] was 10.8%. It also gave a viability, T/C (second compound 0.3 µM, first compound 0.316 µM) of 6.23%, a viability, T/C (second compound 0.3 µM, first compound 1 µM) of 0.74% and a viability, T/C [13] of 12.2%. It also gave a viability, T/C [14] of 9.4%, a viability, T/C [15] of 5.86% and a viability, T/C [16] of 2.63%. It also gave a viability, T/C (second compound 0.949 µM, first compound 0.316 µM) of 1.42%, a viability, T/C (second compound 0.949 µM, first compound 1 µM) of 0.49% and a viability, T/C [17] of 4.48%. It also gave a viability, T/C [18] of 3.3%, a viability, T/C [19] of 2.05% and a viability, T/C [20] of 1.31%. It also gave a viability, T/C (second compound 3 µM, first compound 0.316 µM) of 0.47% and a viability, T/C (second compound 3 µM, first compound 1 µM) of 0.37%.
`NC(=O)C(=Cn1cnc(-c2cc(C(F)(F)F)cc(C(F)(F)F)c2)n1)c1cncnc1` + CCN1C(C(=O)NC23CCC(C(=O)O)(CC2)CC3)C(c2cccc(Cl)c2F)C2(C(=O)Nc3cc(Cl)ccc32)C12CCCCC2 was tested, and the IC50 (second compound 0.03 µM) was 24.8 nM, the IC50 (second compound 0.0949 µM) was 8.01 nM and the IC50 (second compound 0.3 µM) was under 0.949 nM. For the same compound, the IC50 (second compound 0.949 µM) was under 0.949 nM, the IC50 (second compound 3 µM) was under 0.949 nM and the viability, T/C (second compound 0.03 µM, first compound 0.000949 µM) was 102%. For the same compound, the viability, T/C (second compound 0.03 µM, first compound 0.003 µM) was 83.2%, the viability, T/C (second compound 0.03 µM, first compound 0.00949 µM) was 75.5% and the viability, T/C (second compound 0.03 µM, first compound 0.03 µM) was 49.4%. For the same compound, the viability, T/C (second compound 0.03 µM, first compound 0.0949 µM) was 8.49%, the viability, T/C (second compound 0.03 µM, first compound 0.3 µM) was 1.47% and the viability, T/C (second compound 0.0949 µM, first compound 0.000949 µM) was 73.5%. The viability, T/C (second compound 0.0949 µM, first compound 0.003 µM) was 70.8%, the viability, T/C (second compound 0.0949 µM, first compound 0.00949 µM) was 45.9% and the viability, T/C (second compound 0.0949 µM, first compound 0.03 µM) was 16.1%. For the same compound, the viability, T/C (second compound 0.0949 µM, first compound 0.0949 µM) was 5.19%, the viability, T/C (second compound 0.0949 µM, first compound 0.3 µM) was 0.5% and the viability, T/C (second compound 0.3 µM, first compound 0.000949 µM) was 40.5%. It also gave a viability, T/C (second compound 0.3 µM, first compound 0.003 µM) of 33.2%, a viability, T/C (second compound 0.3 µM, first compound 0.00949 µM) of 22.8% and a viability, T/C (second compound 0.3 µM, first compound 0.03 µM) of 5.64%. The viability, T/C (second compound 0.3 µM, first compound 0.0949 µM) was 1.54%, the viability, T/C (second compound 0.3 µM, first compound 0.3 µM) was 0.36% and the viability, T/C (second compound 0.949 µM, first compound 0.000949 µM) was 9.07%. It also gave a viability, T/C (second compound 0.949 µM, first compound 0.003 µM) of 5.81%, a viability, T/C (second compound 0.949 µM, first compound 0.00949 µM) of 5.57% and a viability, T/C (second compound 0.949 µM, first compound 0.03 µM) of 1.96%. The viability, T/C (second compound 0.949 µM, first compound 0.0949 µM) was 0.72%, the viability, T/C (second compound 0.949 µM, first compound 0.3 µM) was 0.32% and the viability, T/C (second compound 3 µM, first compound 0.000949 µM) was 4.84%. The viability, T/C (second compound 3 µM, first compound 0.003 µM) was 2.37%, the viability, T/C (second compound 3 µM, first compound 0.00949 µM) was 1.32% and the viability, T/C (second compound 3 µM, first compound 0.03 µM) was 1%. For the same compound, the viability, T/C (second compound 3 µM, first compound 0.0949 µM) was 0.92% and the viability, T/C (second compound 3 µM, first compound 0.3 µM) was 0.41%.
With `NC1CCC(NC2CC2c2ccccc2)CC1` (stereo not given) + CCN1C(C(=O)NC23CCC(C(=O)O)(CC2)CC3)C(c2cccc(Cl)c2F)C2(C(=O)Nc3cc(Cl)ccc32)C12CCCCC2 the IC50 (second compound 0.03 µM) was over 100 nM, the IC50 (second compound 0.0949 µM) was over 100 nM and the IC50 (second compound 0.3 µM) was under 0.316 nM. The IC50 (second compound 0.949 µM) was under 0.316 nM, the IC50 (second compound 3 µM) was under 0.316 nM and the viability, T/C (second compound 0.03 µM, first compound 0.000316 µM) was 103%. The viability, T/C (second compound 0.03 µM, first compound 0.001 µM) was 94.5%, the viability, T/C [1] was 93.8% and the viability, T/C [2] was 92.4%. The viability, T/C [3] was 103%, the viability, T/C [4] was 97.3% and the viability, T/C (second compound 0.0949 µM, first compound 0.000316 µM) was 84.3%. For the same compound, the viability, T/C (second compound 0.0949 µM, first compound 0.001 µM) was 84.4%, the viability, T/C [5] was 83.4% and the viability, T/C [6] was 84.9%. For the same compound, the viability, T/C [7] was 83.9%, the viability, T/C [8] was 87.4% and the viability, T/C (second compound 0.3 µM, first compound 0.000316 µM) was 53%. The viability, T/C (second compound 0.3 µM, first compound 0.001 µM) was 47.9%, the viability, T/C [9] was 43.8% and the viability, T/C [10] was 39.1%. The viability, T/C [11] was 49.8%, the viability, T/C [12] was 43.6% and the viability, T/C (second compound 0.949 µM, first compound 0.000316 µM) was 10.8%. It also gave a viability, T/C (second compound 0.949 µM, first compound 0.001 µM) of 12.7%, a viability, T/C [13] of 15.8% and a viability, T/C [14] of 11.6%. It also gave a viability, T/C [15] of 14.7%, a viability, T/C [16] of 16.5% and a viability, T/C (second compound 3 µM, first compound 0.000316 µM) of 4.55%. It also gave a viability, T/C (second compound 3 µM, first compound 0.001 µM) of 5.4%, a viability, T/C [17] of 2.47% and a viability, T/C [18] of 7.42%. For the same compound, the viability, T/C [19] was 5.29% and the viability, T/C [20] was 4.14%.
